Data as given in patent US20240197760A1, “ACTIVATORS OF INTEGRATED STRESS RESPONSE PATHWAY FOR PROTECTION AGAINST FERROPTOSIS” (Burke Neurological Institute, priority 2021, published 2024).

Tested on: 5×FAD mice
Assay: Intracerebroventricular Alzet pump infusion in 5×FAD and wild type mice: Bdnf, LTP, Y-maze, Morris water maze
Type: in vivo, mouse
Text: All animal procedures were approved by the Weill Cornell Medicine Institutional Animal Care and Use Committee (Animal protocol: 2014-0029) and conducted in accordance with the NIH Guide for the Care and Use of Laboratory Animals and ARRIVE guidelines. We used C57/BL6 mice for the induction of ischemic stroke and hemorrhagic stroke. 8-10 weeks old female pregnant CD1 mice were used for primary neuronal culture. Ppp1R15b^flox/flox mice were obtained from Ann-Hwee Lee's group currently working at Regeneron and were bred at Burke Neurological Institute. The genotypes of Ppp1R15b^flox/flox mice were assessed with PCR using DNA isolated from clipped tails of mice. Twelve weeks old male Ppp1R15b^flox/flox mice were used for inactivation of R15b regulatory subunit of protein phosphatase 1 in the hippocampus through AAV8 GFP or Cre intracranial injection. In the current study, 5×FAD mouse was used as a model of AD as this model represents pathological characteristics seen in both genetic as well as sporadic forms of AD. 5×FAD mice (B6/SJL genetic background) was purchased from Jackson's laboratory and was maintained by breeding male heterozygous transgenic mice with wild type female mice. The 5×FAD mice express human APP and PSEN1 transgenes with a total of five AD-linked mutations: the Swedish (K670N/M671L), Florida (I716V), and London (V717I) mutations in APP, and the M146L and L286V mutations in PSEN1. In the current study, 6-7 months old 5×FAD mice were used for the Alzet mini osmotic pump implantation followed by memory assessment, LTP assessment, and gene expression studies.
Brains were quickly removed from mice sacrificed by cervical dislocation and placed in cold artificial cerebrospinal fluid (ACSF) (bubbled with 95% O2/5% CO2) containing (in mM): 124 NaCl, 4 KCl, 1 Na2HPO4, 25 NaHCO3, 2 CaCl2, 2 MgCl2, and 10 glucose. The pH and osmolarity of the solution were 7.4 and 310 mOsm/L, respectively. The hippocampus was isolated and placed on a mechanical tissue chopper to produce transverse hippocampal slices of 400 μm thickness. Slices were maintained in a humidified interface chamber at 29° C. and continuously perfused (˜1 mL/min) with 95% O2/5% CO2-bubbled ACSF. Hippocampal slices were allowed to recover for at least 90 min prior to beginning the experiment. For recordings, glass electrodes were filled with ACSF and positioned in the CA1 stratum radiatum to record fEPSPs evoked by local stimulation (0.1 ms) of Schaffer collateral fibers using a bipolar concentric electrode placed laterally to the recording electrode (˜150 μm). For LTP recordings, the voltage intensity of the stimulation test pulse (square pulse, 100 us duration) for each slice was determined to be the voltage intensity that had generated 30-40% of the maximum slope obtained using input-output relationships. Facilitation was calculated as the ratio of the slopes of the second and first fEPSPs, and plotted as a function of the inter-pulse duration. For LTP, a test pulse was applied every minute. Following a steady baseline of 15 min, potentiation was induced with either 100 Hz for 1 s (weak stimulation) or 3 theta-burst stimulations (TBS; 15 s interval), each one involving a single train of 10 bursts at 5 Hz, where each burst is composed of 4 pulses at 100 Hz (strong stimulation). The fEPSP slopes following tetanic stimulation were normalized to the average of the slopes of the fEPSPs acquired during the baseline. Residual potentiation was calculated as the average of the last 15 min of 2 h of recordings.
The sterile Alzet mini osmotic pumps (Durect, pump model 1004) were filled with 100 μl of either saline or 2-deoxyglucose (10 μg/μl) and were incubated in saline for 24 h to allow the osmotic release of the drug. Thereafter, the pumps were attached properly with the plastic tubing provided in the brain infusion kit 2 3-5 mm (Durect, catalog number 0008663). We made an intracerebroventricular groove stereotaxically in the mouse brain. […]

[1] = ICV Alzet pump, four weeks, wild type mice
[2] = ICV Alzet pump, four weeks, versus wild type mice treated with saline

OC[C@H]1OC(O)C[C@@H](O)[C@@H]1O (stereo partly drawn) [2-DG, (4R,5S,6R)-6-(hydroxymethyl)oxane-2,4,5-triol]
Bdnf gene expression in wild type mice [1]: didn't lead to nootropic upregulation
LTP in wild type mice [1]: didn't lead to nootropic upregulation
Morris water maze task in wild type mice [1]: did not show any nootropic increase
Y-maze task in wild type mice [1]: did not show any nootropic increase
LTP in hippocampal slices from 5×FAD mice (ICV Alzet pump, four weeks, 5×FAD (saline) vs 5×FAD (2-DG) p=0.0194): normalized
Bdnf gene expression in 5×FAD mice [2]: normalized
spatial long-term memory in Morris water maze, 5×FAD mice [2]: normalized these memories
spatial short-term memory, spontaneous alternation test in Y-maze, 5×FAD mice [2]: normalized these memories
driving the adaptive plasticity program (intracerebroventricular infusion at 1 g/Kg/day): sufficient in driving the adaptive plasticity program
